# Data published in PubChem BioAssay (NCI).
#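 Protocol summary: plate cells (96-well), add compound at 5 concentrations, incubate 48 h, interpolate endpoints linearly. At the GI50, growth is halved. The concentration for full growth arrest is given as TGI.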
# What was measured:
# Assay in all cases: DTP human tumour cell line panel, 48 h
# MDA-MB-435 = tested on: MDA-MB-435
# SF-268 CNS = tested on: SF-268 CNS
# 786-0 renal = tested on: 786-0 renal
# RPMI-8226 leukemia = tested on: RPMI-8226 leukemia
# A549 NSCLC = tested on: A549 NSCLC
# OVCAR-5 ovarian = tested on: OVCAR-5 ovarian
# UACC-257 melanoma = tested on: UACC-257 melanoma
# HS 578T breast = tested on: HS 578T breast
# SF-539 CNS = tested on: SF-539 CNS
# BT-549 breast = tested on: BT-549 breast
# CAKI-1 renal = tested on: CAKI-1 renal
# HOP-92 NSCLC = tested on: HOP-92 NSCLC
# PC-3 prostate = tested on: PC-3 prostate
# COLO 205 colon = tested on: COLO 205 colon
# HCT-15 colon = tested on: HCT-15 colon
# OVCAR-3 ovarian = tested on: OVCAR-3 ovarian
# K-562 leukemia = tested on: K-562 leukemia
# HOP-62 NSCLC = tested on: HOP-62 NSCLC
# U251 CNS = tested on: U251 CNS
# KM12 colon = tested on: KM12 colon
# RXF 393 renal = tested on: RXF 393 renal
# OVCAR-8 ovarian = tested on: OVCAR-8 ovarian
# CCRF-CEM leukemia = tested on: CCRF-CEM leukemia
# SK-MEL-2 melanoma = tested on: SK-MEL-2 melanoma
# DU-145 prostate = tested on: DU-145 prostate
# SN12C renal = tested on: SN12C renal
# SK-MEL-28 melanoma = tested on: SK-MEL-28 melanoma
# SW-620 colon = tested on: SW-620 colon
# HT29 colon = tested on: HT29 colon
# SK-OV-3 ovarian = tested on: SK-OV-3 ovarian
# NCI/ADR-RES ovarian = tested on: NCI/ADR-RES ovarian
# MCF7 breast = tested on: MCF7 breast
# LOX IMVI melanoma = tested on: LOX IMVI melanoma
# MDA-MB-231 breast = tested on: MDA-MB-231 breast
# T-47D breast = tested on: T-47D breast
# OVCAR-4 ovarian = tested on: OVCAR-4 ovarian
# M14 melanoma = tested on: M14 melanoma
# ACHN renal = tested on: ACHN renal
# SR leukemia = tested on: SR leukemia
# SNB-19 CNS = tested on: SNB-19 CNS
# NCI-H23 lung = tested on: NCI-H23 lung
# TK-10 renal = tested on: TK-10 renal
# NCI-H226 lung = tested on: NCI-H226 lung
# UO-31 renal = tested on: UO-31 renal
# NCI-H460 lung = tested on: NCI-H460 lung
# MALME-3M melanoma = tested on: MALME-3M melanoma
# IGROV1 ovarian = tested on: IGROV1 ovarian
# NCI-H522 lung = tested on: NCI-H522 lung
# SK-MEL-5 melanoma = tested on: SK-MEL-5 melanoma
# MOLT-4 leukemia = tested on: MOLT-4 leukemia
# SF-295 CNS = tested on: SF-295 CNS
# HCC-2998 colon = tested on: HCC-2998 colon
# UACC-62 melanoma = tested on: UACC-62 melanoma
# HCT-116 colon = tested on: HCT-116 colon
smiles,measurement,setting,value
Nc1c(C(=O)Nc2ccccc2)sc2nc3c(cc12)CN(Cc1ccccc1)CC3,GI50,MDA-MB-435,3.43 µM
same,TGI,MDA-MB-435,71.6 µM
same,GI50,SF-268 CNS,5.62 µM
same,TGI,SF-268 CNS,> 100 µM
same,GI50,786-0 renal,13 µM
same,TGI,786-0 renal,> 100 µM
same,GI50,RPMI-8226 leukemia,55.8 µM
same,TGI,RPMI-8226 leukemia,> 100 µM
same,GI50,A549 NSCLC,13.9 µM
same,TGI,A549 NSCLC,> 100 µM
same,GI50,OVCAR-5 ovarian,> 100 µM
same,TGI,OVCAR-5 ovarian,> 100 µM
same,GI50,UACC-257 melanoma,52.8 µM
same,TGI,UACC-257 melanoma,> 100 µM
same,GI50,HS 578T breast,2.07 µM
same,TGI,HS 578T breast,7.55 µM
same,GI50,SF-539 CNS,2.78 µM
same,TGI,SF-539 CNS,> 100 µM
same,GI50,BT-549 breast,16.8 µM
same,TGI,BT-549 breast,92.3 µM
same,GI50,CAKI-1 renal,19.7 µM
same,TGI,CAKI-1 renal,> 100 µM
same,GI50,HOP-92 NSCLC,2.48 µM
same,TGI,HOP-92 NSCLC,20.4 µM
same,GI50,PC-3 prostate,27.1 µM
same,TGI,PC-3 prostate,> 100 µM
same,GI50,COLO 205 colon,24 µM
same,TGI,COLO 205 colon,> 100 µM
same,GI50,HCT-15 colon,24.7 µM
same,TGI,HCT-15 colon,> 100 µM
same,GI50,OVCAR-3 ovarian,11.4 µM
same,TGI,OVCAR-3 ovarian,> 100 µM
same,GI50,K-562 leukemia,9.1 µM
same,TGI,K-562 leukemia,> 100 µM
same,GI50,HOP-62 NSCLC,4.11 µM
same,TGI,HOP-62 NSCLC,33.3 µM
same,GI50,U251 CNS,13.9 µM
same,TGI,U251 CNS,> 100 µM
same,GI50,KM12 colon,19.1 µM
same,TGI,KM12 colon,> 100 µM
same,GI50,RXF 393 renal,3.15 µM
same,TGI,RXF 393 renal,54.3 µM
same,GI50,OVCAR-8 ovarian,16.8 µM
same,TGI,OVCAR-8 ovarian,> 100 µM
same,GI50,CCRF-CEM leukemia,50.3 µM
same,TGI,CCRF-CEM leukemia,> 100 µM
same,GI50,SK-MEL-2 melanoma,20.3 µM
same,TGI,SK-MEL-2 melanoma,> 100 µM
same,GI50,DU-145 prostate,14.8 µM
same,TGI,DU-145 prostate,> 100 µM
same,GI50,SN12C renal,65.7 µM
same,TGI,SN12C renal,> 100 µM
same,GI50,SK-MEL-28 melanoma,23.2 µM
same,TGI,SK-MEL-28 melanoma,> 100 µM
same,GI50,SW-620 colon,20.8 µM
same,TGI,SW-620 colon,> 100 µM
same,GI50,HT29 colon,24.7 µM
same,TGI,HT29 colon,> 100 µM
same,GI50,SK-OV-3 ovarian,3.53 µM
same,TGI,SK-OV-3 ovarian,> 100 µM
same,GI50,NCI/ADR-RES ovarian,16.3 µM
same,TGI,NCI/ADR-RES ovarian,> 100 µM
same,GI50,MCF7 breast,12.1 µM
same,TGI,MCF7 breast,> 100 µM
same,GI50,LOX IMVI melanoma,10.5 µM
same,TGI,LOX IMVI melanoma,> 100 µM
same,GI50,MDA-MB-231 breast,5.81 µM
same,TGI,MDA-MB-231 breast,> 100 µM
same,GI50,T-47D breast,16.2 µM
same,TGI,T-47D breast,> 100 µM
same,GI50,OVCAR-4 ovarian,1.97 µM
same,TGI,OVCAR-4 ovarian,23.1 µM
same,GI50,M14 melanoma,30.8 µM
same,TGI,M14 melanoma,> 100 µM
same,GI50,ACHN renal,5.5 µM
same,TGI,ACHN renal,> 100 µM
same,GI50,SR leukemia,13.1 µM
same,TGI,SR leukemia,> 100 µM
same,GI50,SNB-19 CNS,18.3 µM
same,TGI,SNB-19 CNS,> 100 µM
same,GI50,NCI-H23 lung,21.7 µM
same,TGI,NCI-H23 lung,> 100 µM
same,GI50,TK-10 renal,4.09 µM
same,TGI,TK-10 renal,54.7 µM
same,GI50,NCI-H226 lung,4.91 µM
same,TGI,NCI-H226 lung,> 100 µM
same,GI50,UO-31 renal,6.14 µM
same,TGI,UO-31 renal,> 100 µM
same,GI50,NCI-H460 lung,7.51 µM
same,TGI,NCI-H460 lung,> 100 µM
same,GI50,MALME-3M melanoma,3.8 µM
same,TGI,MALME-3M melanoma,> 100 µM
same,GI50,IGROV1 ovarian,37.8 µM
same,TGI,IGROV1 ovarian,> 100 µM
same,GI50,NCI-H522 lung,32.5 µM
same,TGI,NCI-H522 lung,> 100 µM
same,GI50,SK-MEL-5 melanoma,9.58 µM
same,TGI,SK-MEL-5 melanoma,> 100 µM
same,GI50,MOLT-4 leukemia,31.3 µM
same,TGI,MOLT-4 leukemia,> 100 µM
same,GI50,SF-295 CNS,5.45 µM
same,TGI,SF-295 CNS,> 100 µM
same,GI50,HCC-2998 colon,76.1 µM
same,TGI,HCC-2998 colon,> 100 µM
same,GI50,UACC-62 melanoma,13.9 µM
same,TGI,UACC-62 melanoma,> 100 µM
same,GI50,HCT-116 colon,11 µM
same,TGI,HCT-116 colon,> 100 µM
